What was measured:
male Long Evans rats = assay: Attentional set-shifting task (sub-chronic PCP rats); format: in vivo, rat; conditions: single oral administration after CD
Description: Attentional Set-Shifting Task
The compound of the present invention was evaluated by an attentional set-shifting task test.
The attentional set-shifting task test, as in WCST, is a test for measuring flexibility with respect to the change of a rule (clue). The effect on executive function disorder which is one of higher brain dysfunctions can be evaluated by this test.
After allowing the mouse to learn a task that food reward is obtained if there is a clue, in the case where the clue is shifted within a dimension (for example, the clue is changed from a form to another form), both normal animal and pathological animal having abnormality in the prefrontal cortex of the brain (hereinafter, referred to as “pathological animal”) can discriminate clues to obtain food reward. However, after allowing the mouse to learn a task of obtaining food reward by a clue, in the case where the clue is shifted to the outside of a dimension (for example, the clue is changed from a form to aroma), the normal animal can discriminate a clue of food, but the pathological animal cannot discriminate the clue of food. This test puts this behavior to practical use.
The following experiments were carried out with reference to European Journal of Neuroscience, 2005, vol. 21, p. 1070-1076, which was partially modified. […]

ddY male mouse = assay: Y-maze test (spontaneous alternation behavior, MK-801-induced cognitive impairment); format: in vivo; conditions: single oral administration 1 hour before test, MK-801 0.15 mg/kg i.p.
Description: The improvement effect on cognitive impairment of the compound of the present invention was evaluated using Y-maze test that is an experimental system of spontaneous alternation behavior.
As the Y-maze, a maze in which three runways, each having a length of 40 cm, a height of 13 cm, a floor width of 3 cm, and an upper portion width of 10 cm, are attached to each other in a Y shape at an angle of 120°, was used. […]
After the aforementioned mouse was placed at the end of any runway in the Y-maze, the mouse was freely searched for eight minutes. The number of times the mouse has entered the runway was counted, and this counted number of times was set to the total entry number. The number of times the mouse has continuously entered three different runways (for example, when three arms were represented by a, b, and c, respectively, in the case where the order of entry of runways is abccbacab, it was counted by 4) was set to spontaneous alternation behavior number. Spontaneous alternation behavior rate is calculated by Calculation Equation: Spontaneous alternation behavior rate=[spontaneous alternation behavior number/(total entry number−2)]×100. The calculated spontaneous alternation behavior rate was set to an index of spontaneous alternation behavior.
The measured value was represented by average value f standard error for each group. […]

[1] = target: T1, human dopamine D1 receptor (Homo sapiens, UniProt P21728); assay: Evaluation of positive allosteric modulating action (PAM action): left shift of dopamine dose-response curve (cAMP, TR-FRET); format: cell-based; conditions: human dopamine D1 receptor stably-expressing CHO cells
T1 construct: expressed in transfected cells
Description: Buffer solution for assay=αMEM containing 1 mM IBMX
Buffer solution for dilution=αMEM containing 1 mM IBMX and 0.8 mM ascorbic acid
Evaluation of Positive allosteric modulating action (PAM action)
The PAM action of the compound of the present invention was evaluated by the ratio of a left shift of a dopamine dose response curve.
The left shift means that the dopamine dose response curve, in which the logarithm of dose is set to abscissa (X axis) and the response (in this test, cAMP concentration) is set to ordinate (Y axis), is parallely shifted in the negative direction of the X axis by the addition of PAM.
The coding sequence of a human dopamine D1 receptor (Accession No.: NM_000794.3) was amplified by PCR, and was subcloned into a pEF-BOS vector. […]
To measure cAMP, LANCE Ultra cAMP kit (PerkinElmer Inc., LANCE is a registered trademark) was used. […] The plate was incubated at room temperature for 1 hour, and then the fluorescence intensity at 665 nm and 620 nm was measured (excitation wavelength: 320 nm, fluorescence wavelength: 665 nm, 620 nm) by TR-FRET method using a plate reader (2103 Multilabel Plate Reader (registered trademark Envision), PerkinElmer, Inc.). The fluorescence intensity ratio [(fluorescence intensity at 665 nm)/(fluorescence intensity at 620 nm)×10^4] of each well was calculated, and was used for analysis. […]

T1 sequence (P21728 whole entry): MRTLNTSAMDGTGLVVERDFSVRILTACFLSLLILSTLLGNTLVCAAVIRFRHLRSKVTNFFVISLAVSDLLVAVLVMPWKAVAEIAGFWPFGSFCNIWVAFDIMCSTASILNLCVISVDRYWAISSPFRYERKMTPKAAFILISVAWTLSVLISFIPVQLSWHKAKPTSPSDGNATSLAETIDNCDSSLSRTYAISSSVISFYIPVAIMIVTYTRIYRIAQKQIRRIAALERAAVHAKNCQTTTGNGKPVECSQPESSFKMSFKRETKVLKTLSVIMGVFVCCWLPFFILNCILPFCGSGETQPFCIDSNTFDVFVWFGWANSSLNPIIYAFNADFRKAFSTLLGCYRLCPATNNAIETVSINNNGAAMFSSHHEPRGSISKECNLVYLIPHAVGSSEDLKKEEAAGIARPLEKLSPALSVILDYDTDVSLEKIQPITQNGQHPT

EC50 2-fold potentiation (test drug concentration by which the EC50 of dopamine is potentiated in 2-fold) [1]: 61 nM
SMILES: O=C(Cn1c(=O)oc2cccc(F)c21)N1CCCn2cc(-c3ccc(C(F)(F)F)cc3)nc2C1 [Ex1, 4-fluoro-3-(2-oxo-2-{2-[4-(trifluoromethyl)phenyl]-6,7-dihydro-5H-imidazo[1,2-a][1,4]diazepin-8(9H)-yl}ethyl)-1,3-benzoxazol-2(3H)-one]
Dat3: minimum effective dose (improving the executive function disorder, ED task) (male Long Evans rats): 0.003 mg/kg
Dat2: minimum effective dose (significantly improving spontaneous alternation behavior) (ddY male mouse): 0.03 mg/kg

Source: patent US10426784B2, “Imidazodiazepine compound” (Astellas Pharma Inc., priority 2015, dated 2019)
